Assay [1] deals with D-apionate lactonase / D-apionolactonase (A6X3G3, "hypothetical" protein) (Brucella anthropi, UniProt A6X3G3).
Assay [2] has as its target D-apiose dehydrogenase (B9JK80) (Martinezella rhizogenes, UniProt B9JK80). Nature of the assay: NADH formation, […] nm. The settings on record: 1.5 mM NAD+; 50 mM Tris-HCl pH 8.5; 25 °C; furanose D-apiose. The format is biochemical.

Chain of D-apiose dehydrogenase (B9JK80) (B9JK80 whole entry): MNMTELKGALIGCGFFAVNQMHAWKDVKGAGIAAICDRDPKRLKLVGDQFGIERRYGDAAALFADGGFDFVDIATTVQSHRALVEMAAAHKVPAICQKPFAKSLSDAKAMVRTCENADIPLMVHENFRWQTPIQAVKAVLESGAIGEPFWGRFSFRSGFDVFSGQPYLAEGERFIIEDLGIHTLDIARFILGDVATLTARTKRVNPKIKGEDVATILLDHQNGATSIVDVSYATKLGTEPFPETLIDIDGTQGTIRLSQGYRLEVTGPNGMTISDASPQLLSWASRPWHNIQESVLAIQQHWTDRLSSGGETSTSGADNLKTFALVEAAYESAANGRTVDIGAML
Chain of D-apionate lactonase / D-apionolactonase (A6X3G3, "hypothetical" protein) (A6X3G3 whole entry, looked up, one chain of several): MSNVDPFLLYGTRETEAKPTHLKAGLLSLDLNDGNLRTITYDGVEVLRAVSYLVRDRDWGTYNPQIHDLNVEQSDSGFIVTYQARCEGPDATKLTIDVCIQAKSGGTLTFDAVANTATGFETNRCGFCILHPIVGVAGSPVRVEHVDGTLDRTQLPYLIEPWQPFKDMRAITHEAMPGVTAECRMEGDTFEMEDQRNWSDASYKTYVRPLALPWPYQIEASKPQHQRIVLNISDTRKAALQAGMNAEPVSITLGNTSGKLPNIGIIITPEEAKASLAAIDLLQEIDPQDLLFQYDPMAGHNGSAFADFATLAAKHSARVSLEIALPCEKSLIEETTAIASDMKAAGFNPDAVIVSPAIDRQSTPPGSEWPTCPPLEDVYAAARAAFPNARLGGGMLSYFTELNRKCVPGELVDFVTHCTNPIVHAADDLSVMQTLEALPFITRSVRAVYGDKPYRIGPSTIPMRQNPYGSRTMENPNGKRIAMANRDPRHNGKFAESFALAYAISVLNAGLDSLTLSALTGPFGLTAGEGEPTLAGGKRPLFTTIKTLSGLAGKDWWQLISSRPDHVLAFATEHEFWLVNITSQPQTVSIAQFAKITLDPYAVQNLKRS

For the molecule `O=C1OCC(O)(CO)[C@H]1O` (stereo partly drawn) [D-apionolactone], in assay [1], the “1H NMR, D-apionolactone generated in situ by B9JK80” value is given as “it hydrolyzed D-apionolactone to D-apionate”.

As to `O=C[C@H](O)C(O)(CO)CO` [D-apiose], the KM entry in assay [2] is recorded as “(B9JK80) catalyzed oxidation of D-apiose to D-apionolactone using NAD^+”.

The values above are taken from article PMC6435334 (Nature chemical biology, 2018).
